60 compounds from patent US8846746B2, “Pyrazole compound and pharmaceutical use thereof” (Japan Tobacco Inc., priority 2011, dated 2014) can be followed below.

Chain of human SGLT1 (P13866 whole entry): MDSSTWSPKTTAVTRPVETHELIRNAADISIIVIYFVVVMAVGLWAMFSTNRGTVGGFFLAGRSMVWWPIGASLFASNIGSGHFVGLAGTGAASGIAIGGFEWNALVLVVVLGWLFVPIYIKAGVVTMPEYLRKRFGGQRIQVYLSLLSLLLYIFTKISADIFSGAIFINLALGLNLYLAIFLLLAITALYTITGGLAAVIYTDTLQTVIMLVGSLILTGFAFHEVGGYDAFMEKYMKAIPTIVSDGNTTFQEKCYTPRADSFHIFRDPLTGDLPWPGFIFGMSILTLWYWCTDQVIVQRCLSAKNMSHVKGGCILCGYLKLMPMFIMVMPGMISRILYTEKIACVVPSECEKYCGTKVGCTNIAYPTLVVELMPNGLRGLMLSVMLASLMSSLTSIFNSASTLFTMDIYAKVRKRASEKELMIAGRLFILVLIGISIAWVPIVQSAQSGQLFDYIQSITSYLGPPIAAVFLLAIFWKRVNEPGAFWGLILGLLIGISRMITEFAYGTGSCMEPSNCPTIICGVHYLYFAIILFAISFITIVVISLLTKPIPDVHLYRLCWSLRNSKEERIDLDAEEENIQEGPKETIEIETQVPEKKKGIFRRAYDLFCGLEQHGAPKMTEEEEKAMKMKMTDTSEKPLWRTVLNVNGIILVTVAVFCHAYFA

The first assay addresses human SGLT1 (Homo sapiens (Human), UniProt P13866). Put plainly: SGLT1 inhibitory activity: 14C-AMG uptake into CHO-K1 cell line stably expressing human SGLT1. The class given is cell-based. Particulars: 14C-AMG uptake, CHO-K1 cells stably expressing human SGLT1. Put shortly:
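CHO-K1 cells stably expressing human SGLT1 were pre-incubated 20 min in Na(−) buffer (pH 7.4). Test compound in Na(+) buffer with BSA was added with ¹⁴C-AMG (8 kBq) plus unlabelled AMG (2 mM in the added solution) for 1 h at 37 °C.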
By IC50 is commonly meant the point on the concentration scale where inhibition reaches its midpoint. High values mean a need for much substance, low ones inhibition by little substance. `C[C@@H](OCc1cc(F)cc(-c2cc(NC(=O)[C@@H]3CNC(=O)C3)nn2-c2cccc(Cl)c2)c1)C(F)(F)F` [Example 514] yielded an IC50 of 4 nM.
Same read-out and setting: the result for `COc1ccc(F)c(-n2nc(NC(=O)[C@@H]3CNC(=O)C3)cc2-c2cccc(OC(F)(F)F)c2)c1` [Example 515] reads 12 nM; that for `CCOc1ccc(F)c(-n2nc(NC(=O)[C@@H]3CNC(=O)C3)cc2-c2cccc(OC(F)(F)F)c2)c1` [Example 516], 8.3 nM; that for `CC(C)Oc1ccc(F)c(-n2nc(NC(=O)[C@@H]3CNC(=O)C3)cc2-c2cccc(OC(F)(F)F)c2)c1` [Example 517], 3.8 nM.
Same read-out and setting: the result for `COCCOc1ccc(F)c(-n2nc(NC(=O)[C@@H]3CNC(=O)C3)cc2-c2cccc(OC(F)(F)F)c2)c1` [Example 518] reads 11 nM; that for `O=C1C[C@H](C(=O)Nc2cc(-c3cc(F)cc(COCC(F)(F)F)c3)n(-c3ccccc3F)n2)CN1` [Example 519], 13 nM.
Still for that read-out and setting: the same measure for `O=C1C[C@H](C(=O)Nc2cc(-c3cc(F)cc(COCC(F)(F)F)c3)n(-c3cccc(F)c3)n2)CN1` [Example 520]: 18 nM.
In turn, `C[C@@H](OCc1cc(F)cc(-c2cc(NC(=O)[C@@H]3CNC(=O)C3)nn2-c2cccc(F)c2)c1)C(F)(F)F` [Example 521] yielded an IC50 of 5.15 nM.
The compound `COc1ccc(F)c(-n2nc(NC(=O)[C@@H]3CNC(=O)C3)cc2-c2cccc(COCC(F)(F)F)c2)c1` [Example 522] gave an IC50 of 5.3 nM.
Same read-out and setting: the same measure for `COc1ccc(F)c(-n2nc(NC(=O)[C@@H]3CNC(=O)C3)cc2-c2cccc(CO[C@H](C)C(F)(F)F)c2)c1` [Example 523]: 2.15 nM; for `COc1cc(F)cc(-n2nc(NC(=O)[C@@H]3CNC(=O)C3)cc2-c2cccc(OC(F)(F)F)c2)c1` [Example 524]: 27 nM.
In the case of `CCOc1cc(F)cc(-n2nc(NC(=O)[C@@H]3CNC(=O)C3)cc2-c2cccc(OC(F)(F)F)c2)c1` [Example 525], half-maximal inhibition (IC50) was put at 18 nM.
The same measure, in the same setting: the same measure for `CC(C)Oc1cc(F)cc(-n2nc(NC(=O)[C@@H]3CNC(=O)C3)cc2-c2cccc(OC(F)(F)F)c2)c1` [Example 526]: 9.2 nM; for `COc1cc(F)cc(-n2nc(NC(=O)[C@@H]3CNC(=O)C3)cc2-c2cccc(COCC(F)(F)F)c2)c1` [Example 527]: 8.5 nM; for `CCOc1cc(F)cc(-n2nc(NC(=O)[C@@H]3CNC(=O)C3)cc2-c2cccc(COCC(F)(F)F)c2)c1` [Example 528]: 3.6 nM.
On the same count and under the same terms, the same measure for `CC(C)Oc1cc(F)cc(-n2nc(NC(=O)[C@@H]3CNC(=O)C3)cc2-c2cccc(COCC(F)(F)F)c2)c1` [Example 529]: 2.3 nM; for `CC(C)(C)/C=C/c1cccc(-c2cc(NC(=O)[C@@H]3CNC(=O)C3)nn2-c2ccccc2)c1` [Example 531]: 30 nM.
The same measure, in the same setting: the result for `COc1cc(F)cc(-n2nc(NC(=O)[C@@H]3CNC(=O)C3)cc2-c2cccc(CO[C@H](C)C(F)(F)F)c2)c1` [Example 533] reads 2.1 nM; that for `CCOc1cc(F)cc(-n2nc(NC(=O)[C@@H]3CNC(=O)C3)cc2-c2cccc(CO[C@H](C)C(F)(F)F)c2)c1` [Example 534], 1.8 nM; that for `CC(C)Oc1cc(F)cc(-n2nc(NC(=O)[C@@H]3CNC(=O)C3)cc2-c2cccc(CO[C@H](C)C(F)(F)F)c2)c1` [Example 535], 2.8 nM.
For the compound `CC(C)(C)CS(=O)(=O)c1cccc(-c2cc(NC(=O)[C@@H]3CNC(=O)C3)nn2-c2ccccc2)c1` [Example 540], it took 48 nM to reach half-maximal inhibition (IC50).
Still for that read-out and setting: the result for `CC(C)CSc1cccc(-c2cc(NC(=O)[C@@H]3CNC(=O)C3)nn2-c2ccccc2)c1` [Example 546] reads 5.7 nM; that for `C[C@@H](OCc1cccc(-c2cc(NC(=O)[C@@H]3CCC(=O)N3)nn2-c2ccccc2)c1)C(F)(F)F` [Example 547], 43 nM.
The same measure, in the same setting: the result for `C[C@@H](OCc1cc(F)cc(-c2cc(NC(=O)[C@@H]3CCC(=O)N3)nn2-c2ccccc2)c1)C(F)(F)F` [Example 555] reads 24 nM; that for `O=C1NC[C@@H](C(=O)Nc2cc(-c3cccc(COCC(F)(F)F)c3)n(-c3ccccc3)n2)N1` [Example 558], 38 nM; that for `C[C@H]1C(=O)NC[C@@H]1C(=O)Nc1cc(-c2cccc(COCC(F)(F)F)c2)n(-c2ccccc2)n1` [Example 559], 7.7 nM.
On to `C[C@@H](OCc1cccc(-c2cc(NC(=O)[C@H]3CNC(=O)C3)nn2-c2ccccc2)c1)C(F)(F)F` [Example 561], for which the IC50 came to 5.5 nM.
Compound `C[C@@H](OCc1cccc(-c2cc(NC(=O)[C@@H]3CNC(=O)N3)nn2-c2ccccc2)c1)C(F)(F)F` [Example 562] came in with an IC50 of 13 nM.
In turn, `C[C@@H]1C(=O)NC[C@H]1C(=O)Nc1cc(-c2cccc(CO[C@H](C)C(F)(F)F)c2)n(-c2ccccc2)n1` [Example 564] returned an IC50 of 45 nM.
In turn, `C[C@@H](OCc1cccc(-c2cc(NC(=O)C3CCC(=O)NC3)nn2-c2ccccc2)c1)C(F)(F)F` (stereo partly drawn) [Example 565] showed an IC50 of 11 nM.
Regarding `CC(C)(OCc1cc(F)cc(-c2cc(NC(=O)[C@@H]3CNC(=O)C3)nn2-c2ccccc2)c1)C(F)(F)F` [Example 567], half-maximal inhibition (IC50) was put at 14 nM. The IC50 values of the last two compounds are within 1.5-fold of each other.
On the same count and under the same terms, the result for `C[C@@H](OCc1cc(F)cc(-c2cc(NC(=O)[C@H]3CNC(=O)N3)nn2-c2ccc(Cl)cc2)c1)C(F)(F)F` [Example 570] reads 8.7 nM; that for `C[C@@H](OCc1cc(F)cc(-c2cc(NC(=O)[C@H]3CNC(=O)O3)nn2-c2ccc(Cl)cc2)c1)C(F)(F)F` [Example 571], 9.3 nM.
Still for that read-out and setting: the result for `C[C@@H](OCc1cc(F)cc(-c2cc(NC(=O)C3CCC(=O)NC3)nn2-c2ccc(Cl)cc2)c1)C(F)(F)F` (stereo partly drawn) [Example 572] reads 5.1 nM; that for `O=C1C[C@H](C(=O)Nc2cc(-c3cc(F)cc(COC(C(F)(F)F)C(F)(F)F)c3)n(-c3ccc(F)cc3)n2)CN1` [Example 573], 13 nM; that for `CC(C)(OCc1cccc(-c2cc(NC(=O)[C@@H]3CNC(=O)C3)nn2-c2ccc(F)cc2)c1)C(F)(F)F` [Example 574], 17 nM.
On the same count and under the same terms, the same measure for `CC(C)(OCc1cccc(-c2cc(NC(=O)[C@@H]3CNC(=O)C3)nn2-c2ccc(Cl)cc2)c1)C(F)(F)F` [Example 575]: 12 nM.

The assay is the same for the next values; noted with them: CHO-K1, at 0.00265 uM.
For orientation: inhibition means the relative decrease from the control value, in per cent. Read a high inhibition as a strong effect. As for `C[C@H]1C(=O)NC[C@@H]1C(=O)Nc1cc(-c2cccc(CO[C@H](C)C(F)(F)F)c2)n(-c2ccccc2)n1` [Example 563], testing at 0.00265 µM gave an inhibition of 57%.

The same assay, now with this note: CHO-K1, at 0.1 uM.
In turn, `CS(=O)(=O)c1cccc(-n2nc(NC(=O)[C@@H]3CNC(=O)C3)cc2-c2cccc(COCC(F)(F)F)c2)c1` [Example 530] returned an inhibition at 0.1 µM of 40%.
On the same count and under the same terms, the result for `O=C1C[C@H](C(=O)Nc2cc(-c3cccc(C#CC4CC4)c3)n(-c3ccccc3)n2)CN1` [Example 532] reads 26%; that for `O=C1C[C@H](C(=O)Nc2cc(-c3cccc(CO[C@@H]4CCOC4)c3)n(-c3ccccc3)n2)CN1` [Example 536], 15%; that for `O=C1C[C@H](C(=O)Nc2cc(-c3cccc(CO[C@H]4CCOC4)c3)n(-c3ccccc3)n2)CN1` [Example 537], 1%.
On the same count and under the same terms, the result for `O=C1C[C@H](C(=O)Nc2cc(-c3cccc(CO[C@@H]4CCCOC4)c3)n(-c3ccccc3)n2)CN1` [Example 538] reads 33%.
The same measure, in the same setting: the result for `O=C1C[C@H](C(=O)Nc2cc(-c3cccc(CO[C@H]4CCCOC4)c3)n(-c3ccccc3)n2)CN1` [Example 539] reads 35%; that for `CCS(=O)(=O)Cc1cccc(-c2cc(NC(=O)[C@@H]3CNC(=O)C3)nn2-c2ccccc2)c1` [Example 541], 24%.
Compound `O=C1C[C@H](C(=O)Nc2cc(-c3cccc(COC4COC4)c3)n(-c3ccccc3)n2)CN1` [Example 542] gave an inhibition at 0.1 µM of 18%.
The same measure, in the same setting: the same measure for `O=C1C[C@H](C(=O)Nc2cc(-c3cccc(COC4CCOCC4)c3)n(-c3ccccc3)n2)CN1` [Example 543]: 15%; for `C[C@@H](OCc1cc(-c2cc(NC(=O)[C@@H]3CNC(=O)C3)nn2-c2ccccc2)cc(C(F)(F)F)c1)C(F)(F)F` [Example 544]: 21%; for `O=C1CC[C@H](C(=O)Nc2cc(-c3cccc(COCC(F)(F)F)c3)n(-c3ccccc3)n2)N1` [Example 548]: 3%.
On the same count and under the same terms, the same measure for `O=C1CC[C@@H](C(=O)Nc2cc(-c3cccc(COCC(F)(F)F)c3)n(-c3ccccc3)n2)N1` [Example 549]: 41%; for `O=C1C[C@H](C(=O)Nc2cc(-c3cccc(S(=O)(=O)CC(F)(F)F)c3)n(-c3ccccc3)n2)CN1` [Example 550]: 29%.
Regarding `O=C1C[C@H](C(=O)Nc2cc(-c3cccc(S(=O)(=O)CCC(F)(F)F)c3)n(-c3ccccc3)n2)CN1` [Example 551], the inhibition at 0.1 µM came out at 42%.
Same read-out and setting: the result for `O=C1C[C@H](C(=O)Nc2cc(-c3cccc(CS(=O)(=O)CC(F)(F)F)c3)n(-c3ccccc3)n2)CN1` [Example 552] reads 8%; that for `CC(C)CS(=O)(=O)c1cccc(-c2cc(NC(=O)[C@@H]3CNC(=O)C3)nn2-c2ccccc2)c1` [Example 553], 31%.
On the same count and under the same terms, the same measure for `C[C@@H](OCc1cc(F)cc(-c2cc(NC(=O)[C@H]3CCC(=O)N3)nn2-c2ccccc2)c1)C(F)(F)F` [Example 554]: 32%; for `C[C@@H](OCc1cccc(-c2cc(NC(=O)[C@H]3CCC(=O)N3)nn2-c2ccccc2)c1)C(F)(F)F` [Example 556]: 23%.
Still for that read-out and setting: the result for `C[C@@H](OCc1cc(-c2cc(NC(=O)[C@@H]3CNC(=O)C3)nn2-c2ccccc2)ccc1F)C(F)(F)F` [Example 557] reads 48%; that for `CC(C)(C)S(=O)(=O)c1cccc(-c2cc(NC(=O)[C@@H]3CNC(=O)C3)nn2-c2ccccc2)c1` [Example 569], 29%.

The same assay, now with this note: CHO-K1, at 0.3 uM.
The compound `CC(C)S(=O)(=O)Cc1cccc(-c2cc(NC(=O)[C@@H]3CNC(=O)C3)nn2-c2ccccc2)c1` [Example 566] gave an inhibition at 0.3 µM of 22%.
For `CC(C)S(=O)(=O)c1cccc(-c2cc(NC(=O)[C@@H]3CNC(=O)C3)nn2-c2ccccc2)c1` [Example 568], the inhibition at 0.3 µM came out at 27%.
